Several values for one entry are separate records, joined by “and”; a condition that tells them apart may be missing. Equal values may be shown once. Where a name gives a salt, the structure may show the parent alone. Read-outs that look alike come from different tables or passages of the source.
Columns and labels:
BACE1 = molecular target: T1, BACE1 (Homo sapiens, UniProt P56817); assay: in vitro BACE inhibition assay (Primary BACE1 IC50); format: biochemical
T1 construct: purchased R&D 931-AS-050
Description: ABBI Assay: APP Binding BACE Inhibitor (ABBI) activity of any of the compounds described herein can readily be verified using, for example, assays described herein. Basically, in certain embodiments a pair the assays are utilized to identify ABBI compounds that inhibit BACE cleavage of the MBP-C125 APP substrate, resulting in the inhibition of the production of C99 and the β-site peptide substrate (P5-P5′) and also interacts with APP, for example, as measured by surface plasmon resonance (SPR) analysis. In one illustrative embodiment, an MBP-C125 APP695 wt fusion protein can be used as one of the substrates and the second substrate can be the commercially available P5-P5′ fluorescence substrate.

solubility (Sol) = format: physicochemical; details: Table 3; in words
[1] = pharmacokinetics, brain level (Cmax brain); format: in vivo
Description: As is readily apparent, not all compounds were equally able to cross the blood brain barrier, but most compounds did reach pharmacologically meaningful levels given their low IC50 values. FIG. 5A provides a further exemplary compound (FAH65) and FIG. 5B depicts dose response data for Aβ1-42 production in a cell based system. Further shown are effects observed with regard to Aβ1-42 production, sAPPβ and sAPPα formation. […] Here, data are presented for oral and subcutaneous administration (SQ) at dosages of 10- and 30 mg/kg. […] Once more, it should be noted that these exemplary compounds are preferential towards APP in BACE inhibition as can be taken from the data for Aβ1-42, sAPPβ, and sAPPα formation.

[2] = system: CHO-7W cells that were stably transfected with human APP (wildtype); assay: Secondary cell-based APP processing assay (sAPPalpha, sAPPbeta, Abeta 1-42); details: for Aβ1-42 peptide formation / production: cell based; for preference (selectivity) towards APP in BACE inhibition: from Aβ1-42, sAPPβ and sAPPα formation
Description: Cellular Assays: Numerous cell-based assays can be used to evaluate the activity of agent(s) of interest on relative alpha-secretase activity to beta-secretase activity and/or processing of APP to release amyloidogenic versus non-amyloidogenic oligomers.
Human cell lines that normally process Aβ from APP provide a useful means to assay inhibitory activities of the agent(s). Production and release of Aβ and/or other cleavage products into the culture medium can be measured, for example by immunoassay, such as Western blot or enzyme-linked immunoassay (EIA) such as by ELISA.
Relative activity of the alpha-secretase to the beta-secretase can be measured by analysis of one or more cleavage products of the APP substrate. For example, inhibition of beta-secretase activity against the substrate APP would be expected to decrease release of specific beta-secretase induced APP cleavage products such as Aβ (e.g., Aβ40 or Aβ42), sAPPβ and APPneo. Promotion or enhancement of alpha-secretase activity against the substrate APP would be expected to increase release of specific alpha-secretase induced APP cleavage products such as sAPPα and p3 peptide.
In such assays, for example, the cells expressing APP, alpha-secretase and/or beta-secretase are incubated in a culture medium under conditions suitable for alpha-secretase and/or beta-secretase enzymatic activity at its cleavage site on the APP substrate. On exposure of the cells to the agent(s), the amount of Aβ released into the medium and/or the amount of CTF99 fragments of APP in the cell lysates is reduced as compared with the control. The cleavage products of APP can be analyzed, for example, by immune reactions with specific antibodies, as discussed above.

[3] = Tables 1 and 2, read-out: Primary BACE1 IC50
[4] = Table 4, several values in a cell = several determinations, read-out: BACE1 IC50
[5] = Table 2, one cell for the whole line

T1 sequence (P56817 46-457 limits assumed): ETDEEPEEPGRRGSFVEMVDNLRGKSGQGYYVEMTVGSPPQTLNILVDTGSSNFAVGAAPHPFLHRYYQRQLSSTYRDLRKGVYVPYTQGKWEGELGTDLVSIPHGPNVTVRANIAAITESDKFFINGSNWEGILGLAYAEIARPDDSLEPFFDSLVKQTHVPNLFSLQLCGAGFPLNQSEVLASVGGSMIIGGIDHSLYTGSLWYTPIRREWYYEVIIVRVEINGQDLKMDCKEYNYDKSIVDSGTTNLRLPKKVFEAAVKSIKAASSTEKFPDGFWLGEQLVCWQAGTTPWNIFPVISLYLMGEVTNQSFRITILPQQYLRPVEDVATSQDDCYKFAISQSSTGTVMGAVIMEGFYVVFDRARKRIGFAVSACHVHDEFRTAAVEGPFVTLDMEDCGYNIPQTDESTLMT

Row | Structure (SMILES) | IC50 (BACE1; [3]) | IC50 (BACE1; [4]) | further results
1 | Cc1cc(C2(c3cnn(C)c3)N=C(N)N(C)C2=O)ccc1OC(F)F (stereo not drawn) [30 HCl] | 2000 nM |  | 
2 | CN1C(=O)C(c2ccccc2)(c2cc(F)cc(F)c2)N=C1N (stereo not drawn) [FAH-01] |  | 2670 nM and 4700 nM | 
3 | CN1C(=O)C(c2ccc(OC(F)F)cc2)(c2cc(F)cc(F)c2)N=C1N (stereo not drawn) [FAH-02] |  | 2130 nM and 9200 nM | 
4 | CN1C(=O)C(c2cc(F)cc(F)c2)(c2cccc(OC(F)F)c2)N=C1N (stereo not drawn) [FAH-04] |  | 2230 nM and 3500 nM | 
5 | Cc1cc(C)cc(C2(c3cc(F)cc(F)c3)N=C(N)N(C)C2=O)c1 (stereo not drawn) [FAH-05] |  | 6460 nM | 
6 | COc1ccc(C2(c3cc(F)cc(F)c3)N=C(N)N(C)C2=O)cc1C (stereo not drawn) [FAH-06] |  | 600 nM and 4100 nM | 
7 | COc1ccc(C2(c3ccc(F)cc3F)N=C(N)N(C)C2=O)cc1C (stereo not drawn) [FAH-08] |  | 2300 nM | 
8 | COc1ccc(C2(c3cc(C)c(F)cc3F)N=C(N)N(C)C2=O)cc1C (stereo not drawn) [FAH-09] |  | 1400 nM | 
9 | Cc1cc(C2(c3cc(F)cc(F)c3)N=C(N)N(C)C2=O)ccc1F (stereo not drawn) [FAH-10] |  | 1600 nM | 
10 | COc1ccc(C2(c3cc(F)cc(F)c3)N=C(N)N(C)C2=O)cn1 (stereo not drawn) [FAH-11] |  | 1800 nM | 
11 | COc1ccc(C2(c3cc(F)cc(F)c3)N=C(N)N(C)C2=O)cc1F (stereo not drawn) [FAH-12] |  | 2600 nM | 
12 | CN1C(=O)C(c2cc(F)cc(F)c2)(c2ccc(F)c(F)c2)N=C1N (stereo not drawn) [FAH-14] |  | 1500 nM | 
13 | CN1C(=O)C(c2cc(F)cc(F)c2)(c2ccnc(F)c2)N=C1N (stereo not drawn) [FAH-15] |  | 2000 nM | 
14 | Cc1cc(C2(c3cccc(F)c3)N=C(N)N(C)C2=O)ccc1OC(F)F (stereo not drawn) [FAH-17] | 150 nM |  | IC50 (BACE1; Table 3, read-out: IC50): ~100 nM; Sol (solubility (Sol)): med; Cmax brain ([1]; 10 mg/kg 5Q): ~0.3 µM
15 | Cc1cc(C2(c3cc(F)c(F)c(F)c3)N=C(N)N(C)C2=O)ccc1OC(F)F (stereo not drawn) [FAH-19] |  | 960 nM | 
16 | Cc1cc(F)cc(C2(c3ccc(OC(F)F)c(C)c3)N=C(N)N(C)C2=O)c1 (stereo not drawn) [FAH-22] |  |  | sAPPbeta ([2]; Secondary (1st test, n = 3), ↓ = decrease): ↓>20%
17 | Cc1cc(C2(c3cccc(Cl)c3)N=C(N)N(C)C2=O)ccc1OC(F)F (stereo not drawn) [FAH-23] | 320 nM | 320 nM | 
18 | Cc1cc(C2(c3cc(F)cc(Cl)c3)N=C(N)N(C)C2=O)ccc1OC(F)F (stereo not drawn) [FAH-25] | 570 nM | 570 nM | 
19 | Cc1cccc(C2(c3ccc(OC(F)F)c(C)c3)N=C(N)N(C)C2=O)c1 (stereo not drawn) [FAH-27] | 130 nM | 130 nM | 
20 | Cc1cc(C2(c3cccc(C(F)(F)F)c3)N=C(N)N(C)C2=O)ccc1OC(F)F (stereo not drawn) [FAH-28] | 380 nM | 380 nM | 
21 | Cc1cc(C2(c3cccc(C(C)C)c3)N=C(N)N(C)C2=O)ccc1OC(F)F (stereo not drawn) [FAH-29] |  | 11000 nM | 

Row | Structure (SMILES) | IC50 (BACE1; [3]) | IC50 (BACE1; [4]) | further results
22 | Cc1cc(C2(c3cnn(C)c3)N=C(N)N(C)C2=O)ccc1OC(F)F (stereo not drawn) [FAH-30] |  | 2000 nM | 
23 | Cc1cc(C2(c3cccc(-c4cccnc4)c3)N=C(N)N(C)C2=O)ccc1OC(F)F (stereo not drawn) [FAH-32] | 70 nM | 70 nM and 50 nM | IC50 (BACE1; Table 3, read-out: IC50): ~60 nM; sAPPα formation ([2]; in words, FIG. 1D): increased sAPPα formation as compared to FAH17; sAPPβ formation ([2]; in words, FIG. 1D): reduced as compared to FAH17; Aβ1-42 peptide formation / production ([2]; in words): substantially reduced; preference (selectivity) towards APP in BACE inhibition ([2]; in words): higher selectivity of FAH32 towards APP; Sol (solubility (Sol)): Sol: good; Cmax brain ([1]; 10 mg/kg 5Q): <0.02 µM
24 | Cc1cc(C2(c3cncnc3)N=C(N)N(C)C2=O)ccc1OC(F)F (stereo not drawn) [FAH-33] | 10000 nM | 10000 nM | 
25 | Cc1cc(C2(c3cncc(F)c3)N=C(N)N(C)C2=O)ccc1OC(F)F (stereo not drawn) [FAH-37] | 5300 nM |  | IC50 (BACE1; Table 3, read-out: IC50): ~5300 nM; reducing BACE activity in vitro (BACE1; in words, FIG. 2B): less effective; Sol (solubility (Sol)): good; Cmax brain ([1]; (IP), no unit in the cell, neighbours μM): ~0.11 (IP)
26 | Cc1cc(C2(c3cocn3)N=C(N)N(C)C2=O)ccc1OC(F)F (stereo not drawn) [FAH-38] | > 10000 nM | 15300 nM | Secondary (sAPPalpha, sAPPbeta, sAPP(α/β), Abeta 1-42, sAPPa/Aβ) [2, 5]: unchanged
27 | Cc1cc(C2(c3cccc(F)c3)N=C(N)N(Cc3ccccc3)C2=O)ccc1OC(F)F (stereo not drawn) [FAH-42] |  | 2300 nM and 2700 nM | 
28 | COCc1cccc(C2(c3ccc(OC(F)F)c(C)c3)N=C(N)N(C)C2=O)c1 (stereo not drawn) [FAH-44] | 300 nM | 300 nM and 50 nM | IC50 (BACE1; Table 3, read-out: IC50): ~25 nM; sAPPalpha ([2]; Secondary (1st test, n = 3), ↑ = increase): ↑>10%; Sol (solubility (Sol)): med; Cmax brain ([1]; 10 mg/kg 5Q): ~0.2 µM
29 | Cc1cc(C2(c3ccnc(F)c3)N=C(N)N(C)C2=O)ccc1OC(F)F (stereo not drawn) [FAH-46] | 1200 nM | 1600 nM | IC50 (BACE1; Table 3, read-out: IC50): ~1200 nM; Sol (solubility (Sol)): good; Cmax brain ([1]; 10 mg/kg 5Q): ~0.3 µM; Cmax brain ([1]; 30 mg/kg): 1.3 μM @ 30 mL
30 | Cc1cc(C2(c3ccc(OC(F)F)c(C)c3)N=C(N)N(C)C2=O)ccn1 (stereo not drawn) [FAH-47] | 1400 nM | 1400 nM | 
31 | COc1cc(C2(c3ccc(OC(F)F)c(C)c3)N=C(N)N(C)C2=O)ccn1 (stereo not drawn) [FAH-48] | 4800 nM | 4800 nM | 
32 | COCc1cc(C2(c3ccc(OC(F)F)c(C)c3)N=C(N)N(C)C2=O)ccn1 (stereo not drawn) [FAH-53] | 2000 nM | 1900 nM | 
33 | CC#Cc1cc(C2(c3ccc(OC(F)F)c(C)c3)N=C(N)N(C)C2=O)ccn1 (stereo not drawn) [FAH-57] |  | 240 nM | 
34 | Cc1cc(C2(C3CCCCC3)N=C(N)N(C)C2=O)ccc1OC(F)F (stereo not drawn) [FAH-59] | 1500 nM | 1500 nM and 750 nM | Toxicity in secondary cell assay [2, 5]: Toxic
35 | CNCc1cccc(C2(c3ccc(OC(F)F)c(C)c3)N=C(N)N(C)C2=O)c1 (stereo not drawn) [FAH-62] | 600 nM | 370 nM | IC50 (BACE1; Table 3, read-out: IC50): ~60 nM; Sol (solubility (Sol)): excellent
36 | Cc1cc(C2(c3cc(-c4cccnc4)ccn3)N=C(N)N(C)C2=O)ccc1OC(F)F (stereo not drawn) [FAH-65] |  |  | Aβ1-42 peptide formation / production ([2]; in words): strongly reduces; preference (selectivity) towards APP in BACE inhibition ([2]; in words): clear preference towards APP
37 | Cc1cc(C2(c3cccc(-c4ccccc4)c3)N=C(N)N(C)C2=O)ccc1OC(F)F (stereo not drawn) [FAH-73] |  | 870 nM | 
38 | CN1C(=O)C(c2ccc(OC(F)F)cc2)(c2cccc(-c3cncnc3)c2)N=C1N (stereo not drawn) [FAH-74] |  | 10 nM | IC50 (BACE1; in vitro BACE inhibition assay, FIG. 8, read-out: IC50): 9 nM
39 | Cc1cc(C2(c3ccncc3)N=C(N)N(C)C2=O)ccc1OC(F)F (stereo not drawn) [FAH-78] |  | 2730 nM | 
40 | Cc1cc(C2(C3CCNCC3)N=C(N)N(C)C2=O)ccc1OC(F)F (stereo not drawn) [FAH-79] |  | 17600 nM | 
41 | CCCc1cc(C2(c3ccc(OC(F)F)c(C)c3)N=C(N)N(C)C2=O)ccn1 (stereo not drawn) [FAH-80] |  | 1670 nM | 
42 | CCCC1CC(C2(c3ccc(OC(F)F)c(C)c3)N=C(N)N(C)C2=O)CCN1 (stereo not drawn) [FAH-81] |  | 14900 nM | 
